Patent publication US20180237441A1, “Chemical Compounds” (GlaxoSmithKline Intellectual Property (No.2) Limited, priority 2015, published 2018)

Target: T1, PERK (Homo sapiens, UniProt Q9NZJ5)
T1 sequence (Q9NZJ5 30-1116): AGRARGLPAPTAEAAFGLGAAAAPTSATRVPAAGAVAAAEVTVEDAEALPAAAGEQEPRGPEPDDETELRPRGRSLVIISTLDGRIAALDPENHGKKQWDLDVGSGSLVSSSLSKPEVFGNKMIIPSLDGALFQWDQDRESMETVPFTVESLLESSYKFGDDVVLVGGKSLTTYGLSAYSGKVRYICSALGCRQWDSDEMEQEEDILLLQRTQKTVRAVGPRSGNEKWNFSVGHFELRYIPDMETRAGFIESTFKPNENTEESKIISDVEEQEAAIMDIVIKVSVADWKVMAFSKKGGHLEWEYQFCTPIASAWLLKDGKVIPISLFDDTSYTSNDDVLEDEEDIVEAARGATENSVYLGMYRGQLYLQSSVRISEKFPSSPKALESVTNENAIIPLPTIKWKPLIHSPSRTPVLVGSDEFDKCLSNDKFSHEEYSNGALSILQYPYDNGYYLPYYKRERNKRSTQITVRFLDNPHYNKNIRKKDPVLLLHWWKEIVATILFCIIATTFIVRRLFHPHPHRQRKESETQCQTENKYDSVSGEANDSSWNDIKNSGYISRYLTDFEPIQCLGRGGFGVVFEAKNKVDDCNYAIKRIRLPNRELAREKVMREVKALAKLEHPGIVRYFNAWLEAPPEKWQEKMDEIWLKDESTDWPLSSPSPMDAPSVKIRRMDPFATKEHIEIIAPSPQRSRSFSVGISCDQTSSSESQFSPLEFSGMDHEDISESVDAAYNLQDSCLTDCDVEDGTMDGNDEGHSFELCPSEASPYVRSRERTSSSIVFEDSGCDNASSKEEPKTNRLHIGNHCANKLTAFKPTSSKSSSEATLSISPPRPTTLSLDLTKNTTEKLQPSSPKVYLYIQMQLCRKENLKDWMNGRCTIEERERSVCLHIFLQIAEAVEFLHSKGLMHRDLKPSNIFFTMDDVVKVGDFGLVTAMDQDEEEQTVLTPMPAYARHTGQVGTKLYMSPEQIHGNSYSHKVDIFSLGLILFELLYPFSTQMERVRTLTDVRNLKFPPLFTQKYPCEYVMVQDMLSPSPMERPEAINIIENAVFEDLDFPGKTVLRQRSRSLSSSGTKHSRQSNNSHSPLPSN
Test: PERK enzyme assay (HTRF)
Type: biochemical
Conditions: 500 μM ATP; at least one experimental run; read-out: PERK Enzyme (500 μM ATP) IC50
Outline: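 HTRF read-out after 2 h of EDTA-quenched reactions, detecting phospho-eIF2α with Eu/APC reagents, gave IC50 values. Reaction: 0.75 nM GST-PERK, 30–60 min compound pre-incubation (max 1% DMSO), then 60 min with 40 nM biotin-eIF2α and 500 μM ATP, HEPES pH 7.5 buffer.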

SMILES | IC50
CN1C(=O)N(c2ccc(-c3cn(C)c4ncnc(N)c34)c(F)c2)CC1c1ccncc1 (centres unmarked) [Example 110, 1-(4-(4-amino-7-methyl-7H-pyrrolo[2,3-d]pyrimidin-5-yl)-3-fluorophenyl)-3-methyl-4-(pyridin-4-yl)imidazolidin-2-one] | 1980 nM
CN1C(=O)N(c2ccc(-c3cn(C)c4ncnc(N)c34)c(F)c2)CC1c1ccc(F)cc1 (single isomer, unassigned) [Example 59, 1-(4-(4-amino-7-methyl-7H-pyrrolo[2,3-d]pyrimidin-5-yl)-3-fluorophenyl)-4-(4-fluorophenyl)-3-methylimidazolidin-2-one] | 3.9 nM

Same assay, conditions: PERK Enzyme (500 μM ATP) IC50; at least one experimental run; read-out: PERK Activity

SMILES | IC50
Cc1nc(N)c2c(-c3ccc(N4CC(c5c(F)cc(F)cc5F)N(C)C4=O)cc3F)cn(C)c2n1 (single isomer, unassigned) [Example 71, 1-(4-(4-amino-2,7-dimethyl-7H-pyrrolo[2,3-d]pyrimidin-5-yl)-3-fluorophenyl)-3-methyl-4-(2,4,6-trifluorophenyl)imidazolidin-2-one] | 100 to 1000 nM
Cc1nc(N)c2c(-c3ccc(N4CC(c5ccc(F)cc5F)N(C)C4=O)cc3F)cn(C(C)C)c2n1 (single isomer, unassigned) [Example 95, 1-(4-(4-amino-7-isopropyl-2-methyl-7H-pyrrolo[2,3-d]pyrimidin-5-yl)-3-fluorophenyl)-4-(2,4-difluorophenyl)-3-methylimidazolidin-2-one] | 100 to 1000 nM
CCN1C(=O)N(c2ccc(-c3cn(C4CC4)c4ncnc(N)c34)c(F)c2)CC1c1cc(F)ccc1F (single isomer, unassigned) [Example 124, 1-(4-(4-amino-7-cyclopropyl-7H-pyrrolo[2,3-d]pyrimidin-5-yl)-3-fluorophenyl)-4-(2,5-difluorophenyl)-3-ethylimidazolidin-2-one] | < 100 nM
CN1C(=O)N(c2ccc(-c3cn(C)c4ncnc(N)c34)c(F)c2)CC1c1c(F)cccc1F (centres unmarked) [Example 81, 1-(4-(4-amino-7-methyl-7H-pyrrolo[2,3-d]pyrimidin-5-yl)-3-fluorophenyl)-4-(2,6-difluorophenyl)-3-methylimidazolidin-2-one] | < 100 nM
Cc1nc(N)c2c(-c3ccc(N4CC(c5cc(F)ccc5F)N(C)C4=O)cc3F)cn(C)c2n1 (single isomer, unassigned) [Example 38, 1-(4-(4-amino-2,7-dimethyl-7H-pyrrolo[2,3-d]pyrimidin-5-yl)-3-fluorophenyl)-4-(2,5-difluorophenyl)-3-methylimidazolidin-2-one] | > 1000 nM
CN1C(=O)N(c2ccc(-c3cn(C)c4ncnc(N)c34)c(F)c2)CC1C1CCCCCC1 (centres unmarked) [Example 138, 1-(4-(4-amino-7-methyl-7H-pyrrolo[2,3-d]pyrimidin-5-yl)-3-fluorophenyl)-4-cycloheptyl-3-methylimidazolidin-2-one] | < 100 nM
CCN1C(=O)N(c2ccc(-c3nn(C)c4ncnc(N)c34)c(F)c2)CC1c1ccc(F)cc1F (centres unmarked) [Example 98, 1-(4-(4-amino-1-methyl-1H-pyrazolo[3,4-d]pyrimidin-3-yl)-3-fluorophenyl)-4-(2,4-difluorophenyl)-3-ethylimidazolidin-2-one] | 100 to 1000 nM
CN1C(=O)N(c2ccc(-c3cn(C4CC4)c4ncnc(N)c34)c(F)c2)CC1c1cc(F)cc(F)c1F (single isomer, unassigned) [Example 142, 1-(4-(4-amino-7-cyclopropyl-7H-pyrrolo[2,3-d]pyrimidin-5-yl)-3-fluorophenyl)-3-methyl-4-(2,3,5-trifluorophenyl)imidazolidin-2-one] | < 100 nM
Cc1nc(N)c2c(-c3c(F)cc(N4CC(c5ccc(F)cc5F)N(C)C4=O)cc3F)cn(C)c2n1 (centres unmarked) [Example 105, 1-(4-(4-amino-2,7-dimethyl-7H-pyrrolo[2,3-d]pyrimidin-5-yl)-3,5-difluorophenyl)-4-(2,4-difluorophenyl)-3-methylimidazolidin-2-one] | 100 to 1000 nM
CN1C(=O)N(c2ccc(-c3cn(C)c4ncnc(N)c34)c(F)c2)CC1c1ccncc1 (centres unmarked) [Example 110, 1-(4-(4-amino-7-methyl-7H-pyrrolo[2,3-d]pyrimidin-5-yl)-3-fluorophenyl)-3-methyl-4-(pyridin-4-yl)imidazolidin-2-one] | > 1000 nM
Cc1nc(N)c2c(-c3ccc(N4CC(c5ccc(F)cc5F)N(C)C4=O)cc3F)cn(C)c2n1 (centres unmarked) [Example 65, 1-(4-(4-amino-2,7-dimethyl-7H-pyrrolo[2,3-d]pyrimidin-5-yl)-3-fluorophenyl)-4-(2,4-difluorophenyl)-3-methylimidazolidin-2-one] | 100 to 1000 nM
CN1C(=O)N(c2ccc(-c3cn(CC(F)(F)F)c4ncnc(N)c34)c(F)c2)CC1c1ccc(F)cc1F (centres unmarked) [Example 82, 1-(4-(4-amino-7-(2,2,2-trifluoroethyl)-7H-pyrrolo[2,3-d]pyrimidin-5-yl)-3-fluorophenyl)-4-(2,4-difluorophenyl)-3-methylimidazolidin-2-one] | 100 to 1000 nM
COc1cccc(C2CN(c3ccc(-c4cn(C)c5ncnc(N)c45)c(F)c3)C(=O)N2C)c1 (centres unmarked) [Example 102, 1-(4-(4-amino-7-methyl-7H-pyrrolo[2,3-d]pyrimidin-5-yl)-3-fluorophenyl)-4-(3-methoxyphenyl)-3-methylimidazolidin-2-one] | 100 to 1000 nM
CN1C(=O)N(c2ccc(-c3cn(C4CC4)c4ncnc(N)c34)c(F)c2)CC1c1ccccc1 (single isomer, unassigned) [Example 166, 1-(4-(4-amino-7-cyclopropyl-7H-pyrrolo[2,3-d]pyrimidin-5-yl)-3-fluorophenyl)-3-methyl-4-phenylimidazolidin-2-one] | < 100 nM
CN1C(=O)N(c2ccc(-c3cn(C)c4ncnc(N)c34)c(F)c2)CC1c1cccnc1 (centres unmarked) [Example 60, 1-(4-(4-amino-7-methyl-7H-pyrrolo[2,3-d]pyrimidin-5-yl)-3-fluorophenyl)-3-methyl-4-(pyridin-3-yl)imidazolidin-2-one] | < 100 nM
CN1C(=O)N(c2ccc(-c3cn(C4CC4)c4ncnc(N)c34)c(Cl)c2)CC1c1cc(F)cc(F)c1 (single isomer, unassigned) [Example 130, 1-(4-(4-amino-7-cyclopropyl-7H-pyrrolo[2,3-d]pyrimidin-5-yl)-3-chlorophenyl)-4-(3,5-difluorophenyl)-3-methylimidazolidin-2-one] | < 100 nM
CN1C(=O)N(c2ccc(-c3cn(C4CC4)c4ncnc(N)c34)c(F)c2)CC1c1ccc(F)cc1 (single isomer, unassigned) [Example 164, 1-(4-(4-amino-7-cyclopropyl-7H-pyrrolo[2,3-d]pyrimidin-5-yl)-3-fluorophenyl)-4-(4-fluorophenyl)-3-methylimidazolidin-2-one] | 100 to 1000 nM
CN1C(=O)N(c2ccc(-c3cn(C)c4ncnc(N)c34)c(F)c2)CC1c1ccc(F)cc1 (single isomer, unassigned) [Example 59, 1-(4-(4-amino-7-methyl-7H-pyrrolo[2,3-d]pyrimidin-5-yl)-3-fluorophenyl)-4-(4-fluorophenyl)-3-methylimidazolidin-2-one] | < 100 nM
CN1C(=O)N(c2ccc(-c3cn(C)c4ncnc(N)c34)c(Cl)c2)CC1c1cc(F)cc(F)c1 (centres unmarked) [Example 121, 1-(4-(4-amino-7-methyl-7H-pyrrolo[2,3-d]pyrimidin-5-yl)-3-chlorophenyl)-4-(3,5-difluorophenyl)-3-methylimidazolidin-2-one] | < 100 nM
CC(C)n1cc(-c2ccc(N3CC(c4cc(F)ccc4F)N(C)C3=O)cc2F)c2c(N)ncnc21 (single isomer, unassigned) [Example 87, 1-(4-(4-amino-7-isopropyl-7H-pyrrolo[2,3-d]pyrimidin-5-yl)-3-fluorophenyl)-4-(2,5-difluorophenyl)-3-methylimidazolidin-2-one] | 100 to 1000 nM
Cn1cc(-c2ccc(N3CC(C4CCCC4)CC3=O)cc2F)c2c(N)ncnc21 (centres unmarked) [Example 28, 1-(4-(4-amino-7-methyl-7H-pyrrolo[2,3-d]pyrimidin-5-yl)-3-fluorophenyl)-4-cyclopentylpyrrolidin-2-one] | 100 to 1000 nM
